In brackets after ≈: the same amount, converted by molar mass. Several values for one entry are separate records, joined by “and”; a condition that tells them apart may be missing. Equal values may be shown once.
Key:
Format in all cases: physicochemical
[1] = Drying experiments of solvated Compound 1 materials (vacuum oven, XRPD); settings: vac., RT, 1 d
Protocol: Drying experiments: Damp and solvated Compound 1 materials were placed in vacuum ovens set to ambient temperature or 80° C. for 1 day. Dried solids were analyzed by XRPD.

[2] = Physical Stability of Selected Solid Forms (vacuum oven, XRPD); settings: vac. oven
[3] = Approximate Aqueous Solubility of Selected Solid Forms; settings: ambient temperature; for solubility: water, thermodynamic from solid
Protocol: Aliquots of various solvents were added to measured amounts of provided compounds with agitation at ambient temperature until complete dissolution was achieved, as judged by visual observation. If dissolution occurred after the addition of the first aliquot, values were reported as “>”. Results are shown in Table 18, where A is <2 mg/mL; B is <1 mg/mL.

[4] = Dynamic vapor sorption (DVS) hygroscopicity; settings: for Hysteresis: in % (unit assumed); for DVS weight loss upon desorption / DVS weight loss upon desorption as water: desorption from 95% to 5% RH; for post-DVS XRPD: solid recovered after DVS cycle; for DVS hysteresis observation: sorption/desorption 5-95% RH
Protocol: Automated vapor sorption (VS) data were collected on a Surface Measurement System DVS Intrinsic instrument. Samples were not dried prior to analysis. Sorption and desorption data were collected over a range from 5% to 95% RH at 10% RH increments under a nitrogen purge. The equilibrium criterion used for analysis was less than 0.0100% weight change in 5 minutes with a maximum equilibration time of 3 hours. Data were not corrected for the initial moisture content of the samples.

[5] = Solubility Study of Compound 1 Form 1 (solvent aliquot addition, visual observation); settings: thermodynamic from solid, read-out: Solubility at ambient temperature
Protocol: Aliquots of various solvents were added to measured amounts of Compound 1 Form 1 with agitation at ambient temperature until complete dissolution was achieved, as judged by visual observation. […] See Table 15 below, where A is 5-20 mg/mL; B is 1-4.9 mg/mL; and C is <1 mg/mL.

[6] = visual observation, read-out: Estimated Aqueous Solubility

CC(=O)Nc1cc(Oc2cnc3nc(Nc4cc(C(F)(F)F)cn(C)c4=O)n(C)c3c2C#N)ccn1 [Compound 1 Form E, N-(4-((7-cyano-1-methyl-2-((1-methyl-2-oxo-5-(trifluoromethyl)-1,2-dihydropyridin-3-yl)amino)-1H-imidazo[4,5-b]pyridin-6-yl)oxy)pyridin-2-yl)acetamide]
XRPD Result after drying ([1]; listed as Form E): Form H (some disorder)

CC(=O)Nc1cc(Oc2cnc3nc(Nc4cc(C(F)(F)F)cn(C)c4=O)n(C)c3c2C#N)ccn1.CCS(=O)(=O)O [Esylate Form A, N-(4-((7-cyano-1-methyl-2-((1-methyl-2-oxo-5-(trifluoromethyl)-1,2-dihydropyridin-3-yl)amino)-1H-imidazo[4,5-b]pyridin-6-yl)oxy)pyridin-2-yl)acetamide esylate]
XRPD Result (physical stability) ([2]; RT, 5 d): Esylate Form A
solubility [3, 6]: < 1000 µg/mL

CC(=O)Nc1cc(Oc2cnc3nc(Nc4cc(C(F)(F)F)cn(C)c4=O)n(C)c3c2C#N)ccn1 [Compound 1 Form 1, N-(4-((7-cyano-1-methyl-2-((1-methyl-2-oxo-5-(trifluoromethyl)-1,2-dihydropyridin-3-yl)amino)-1H-imidazo[4,5-b]pyridin-6-yl)oxy)pyridin-2-yl)acetamide]
Desorp Mass Change (%) ([4]; Target RH 5.0%): −0.011%
Sorp Mass Change (%) ([4]; Target RH 5.0%): 0.001%
Desorp Mass Change (%) ([4]; Target RH 15.0%): 0.103%
Sorp Mass Change (%) ([4]; Target RH 15.0%): 0.068%
Hysteresis ([4]; Target RH 15.0%): 0.036
Desorp Mass Change (%) ([4]; Target RH 25.0%): 3.654%
Sorp Mass Change (%) ([4]; Target RH 25.0%): 0.118%
Hysteresis ([4]; Target RH 25.0%): 3.536
Desorp Mass Change (%) ([4]; Target RH 35.0%): 3.877%
Sorp Mass Change (%) ([4]; Target RH 35.0%): 0.292%
Hysteresis ([4]; Target RH 35.0%): 3.585
Desorp Mass Change (%) ([4]; Target RH 45.0%): 4.084%
Sorp Mass Change (%) ([4]; Target RH 45.0%): 0.396%
Hysteresis ([4]; Target RH 45.0%): 3.687
Desorp Mass Change (%) ([4]; Target RH 55.0%): 4.203%
Sorp Mass Change (%) ([4]; Target RH 55.0%): 3.757%
Hysteresis ([4]; Target RH 55.0%): 0.446
Desorp Mass Change (%) ([4]; Target RH 65.0%): 4.403%
Sorp Mass Change (%) ([4]; Target RH 65.0%): 4.049%
Hysteresis ([4]; Target RH 65.0%): 0.354
Desorp Mass Change (%) ([4]; Target RH 75.0%): 4.578%
Sorp Mass Change (%) ([4]; Target RH 75.0%): 4.282%
Hysteresis ([4]; Target RH 75.0%): 0.296
Desorp Mass Change (%) ([4]; Target RH 85.0%): 4.677%
Sorp Mass Change (%) ([4]; Target RH 85.0%): 4.534%
Hysteresis ([4]; Target RH 85.0%): 0.142
Desorp Mass Change (%) ([4]; Target RH 95.0%): 4.804%
Sorp Mass Change (%) ([4]; Target RH 95.0%): 4.804%
DVS weight loss ([4]; desorption from 25% to 15% RH): 3.55%
DVS weight loss as water ([4]; desorption from 25% to 15% RH): 1.0 mol/mol H2O
DVS weight loss upon desorption [4]: 4.82%
DVS weight loss upon desorption as water [4]: 1.4 mol/mol H2O
post-DVS XRPD [4]: very similar
DVS weight gain ([4]; sorption from 5% to 95% RH): 4.80%
DVS weight gain as water uptake ([4]; sorption from 5% to 95% RH): 1.4 mol/mol H2O
DVS weight gain ([4]; sorption from 45% to 55% RH): 3.36%
DVS weight gain as water uptake ([4]; sorption from 45% to 55% RH): 1.0 mol/mol H2O
DVS hysteresis observation [4]: hysteresis evident
solubility ([5]; organic solvent or mixture, solvent ACN): < 1000 µg/mL
solubility ([5]; organic solvent or mixture, solvent DCM): < 1000 µg/mL
solubility ([5]; organic solvent or mixture, solvent DMA): 5000 to 20000 µg/mL (≈ 10000 to 40100 µM)
solubility ([5]; organic solvent or mixture, solvent MeOH): < 1000 µg/mL
solubility ([5]; organic solvent or mixture, solvent TFE): 5000 to 20000 µg/mL (≈ 10000 to 40100 µM)
solubility ([5]; organic solvent or mixture, solvent THF): 1000 to 4900 µg/mL (≈ 2010 to 9830 µM)
solubility ([5]; organic solvent or mixture, solvent acetone): < 1000 µg/mL
solubility ([5]; water, solvent H2O): < 1000 µg/mL

N-(4-((7-cyano-1-methyl-2-((1-methyl-2-oxo-5-(trifluoromethyl)-1,2-dihydropyridin-3-yl)amino)-1H-imidazo[4,5-b]pyridin-6-yl)oxy)pyridin-2-yl)acetamide edisylate [Edisylate Form A]
XRPD Result (physical stability) ([2]; RT, 5 d): Edisylate Form C
Estimated Aqueous Solubility (mg/mL) ([3]; visual observation): B (B is <1 mg/mL)

CC(=O)Nc1cc(Oc2cnc3nc(Nc4cc(C(F)(F)F)cn(C)c4=O)n(C)c3c2C#N)ccn1.Cl [Compound 2 Form A, N-(4-((7-cyano-1-methyl-2-((1-methyl-2-oxo-5-(trifluoromethyl)-1,2-dihydropyridin-3-yl)amino)-1H-imidazo[4,5-b]pyridin-6-yl)oxy)pyridin-2-yl)acetamide hydrochloride]
Desorp Mass Change (%) ([4]; Target RH 5.0%): −0.0582%
Sorp Mass Change (%) ([4]; Target RH 5.0%): 0.0009%
Desorp Mass Change (%) ([4]; Target RH 15.0%): 0.0326%
Sorp Mass Change (%) ([4]; Target RH 15.0%): 0.0521%
Hysteresis ([4]; Target RH 15.0%): −0.0195
Desorp Mass Change (%) ([4]; Target RH 25.0%): 0.0900%
Sorp Mass Change (%) ([4]; Target RH 25.0%): 0.0998%
Hysteresis ([4]; Target RH 25.0%): −0.0098
Desorp Mass Change (%) ([4]; Target RH 35.0%): 0.1559%
Sorp Mass Change (%) ([4]; Target RH 35.0%): 0.1539%
Hysteresis ([4]; Target RH 35.0%): 0.0020
Desorp Mass Change (%) ([4]; Target RH 45.0%): 0.2304%
Sorp Mass Change (%) ([4]; Target RH 45.0%): 0.2007%
Hysteresis ([4]; Target RH 45.0%): 0.0297
Desorp Mass Change (%) ([4]; Target RH 55.0%): 0.3159%
Sorp Mass Change (%) ([4]; Target RH 55.0%): 0.2634%
Hysteresis ([4]; Target RH 55.0%): 0.0525
Desorp Mass Change (%) ([4]; Target RH 65.0%): 0.4283%
Sorp Mass Change (%) ([4]; Target RH 65.0%): 0.3387%
Hysteresis ([4]; Target RH 65.0%): 0.0896
Desorp Mass Change (%) ([4]; Target RH 75.0%): 0.5577%
Sorp Mass Change (%) ([4]; Target RH 75.0%): 0.5032%
Hysteresis ([4]; Target RH 75.0%): 0.0545
Desorp Mass Change (%) ([4]; Target RH 85.0%): 0.6871%
Sorp Mass Change (%) ([4]; Target RH 85.0%): 0.6403%
Hysteresis ([4]; Target RH 85.0%): 0.0468
Desorp Mass Change (%) ([4]; Target RH 95.0%): 0.9477%
Sorp Mass Change (%) ([4]; Target RH 95.0%): 0.9477%
DVS weight loss upon desorption as water [4]: 0.3 mol/mol H2O
DVS weight loss upon desorption ([4]; hydrochloride): 1.01% and 1.0059%
post-DVS XRPD [4]: Compound 2 Form A
DVS weight gain as water uptake ([4]; sorption from 5% to 95% RH): 0.3 mol/mol H2O
DVS weight gain ([4]; sorption from 5% to 95% RH, hydrochloride): 0.95% and 0.9468%
DVS hysteresis observation [4]: No hysteresis was observed
solubility [3, 6]: < 2000 µg/mL
solubility ([3]; read-out: Aqueous solubility, visually approximated): < 2000 µg/mL

CC(=O)Nc1cc(Oc2cnc3nc(Nc4cc(C(F)(F)F)cn(C)c4=O)n(C)c3c2C#N)ccn1 [Compound 5 Form A, N-(4-((7-cyano-1-methyl-2-((1-methyl-2-oxo-5-(trifluoromethyl)-1,2-dihydropyridin-3-yl)amino)-1H-imidazo[4,5-b]pyridin-6-yl)oxy)pyridin-2-yl)acetamide camsylate]
XRPD Result (physical stability) ([2]; RT, 5 d): Compound 5 Form C

CC(=O)Nc1cc(Oc2cnc3nc(Nc4cc(C(F)(F)F)cn(C)c4=O)n(C)c3c2C#N)ccn1 [Compound 1 Form G, N-(4-((7-cyano-1-methyl-2-((1-methyl-2-oxo-5-(trifluoromethyl)-1,2-dihydropyridin-3-yl)amino)-1H-imidazo[4,5-b]pyridin-6-yl)oxy)pyridin-2-yl)acetamide]
XRPD Result after drying ([1]; listed as Form G): Form B + peaks (some disorder)

Br.CC(=O)Nc1cc(Oc2cnc3nc(Nc4cc(C(F)(F)F)cn(C)c4=O)n(C)c3c2C#N)ccn1 [Compound 3 Form A, N-(4-((7-cyano-1-methyl-2-((1-methyl-2-oxo-5-(trifluoromethyl)-1,2-dihydropyridin-3-yl)amino)-1H-imidazo[4,5-b]pyridin-6-yl)oxy)pyridin-2-yl)acetamide hydrobromide]
XRPD Result (physical stability) ([2]; 45° C., 2 d): Compound 3 Form A +

CC(=O)Nc1cc(Oc2cnc3nc(Nc4cc(C(F)(F)F)cn(C)c4=O)n(C)c3c2C#N)ccn1.O=S(=O)(O)c1ccccc1 [Besylate Form A, N-(4-((7-cyano-1-methyl-2-((1-methyl-2-oxo-5-(trifluoromethyl)-1,2-dihydropyridin-3-yl)amino)-1H-imidazo[4,5-b]pyridin-6-yl)oxy)pyridin-2-yl)acetamide besylate]
XRPD Result (physical stability) ([2]; RT, 5 d): Besylate Form C
solubility [3, 6]: < 1000 µg/mL

CC(=O)Nc1cc(Oc2cnc3nc(Nc4cc(C(F)(F)F)cn(C)c4=O)n(C)c3c2C#N)ccn1.O=P(O)(O)O [Phosphate Form A, N-(4-((7-cyano-1-methyl-2-((1-methyl-2-oxo-5-(trifluoromethyl)-1,2-dihydropyridin-3-yl)amino)-1H-imidazo[4,5-b]pyridin-6-yl)oxy)pyridin-2-yl)acetamide phosphate]
XRPD Result (physical stability) ([2]; RT, 5 d): Phosphate Form A
solubility [3, 6]: < 1000 µg/mL

CC(=O)Nc1cc(Oc2cnc3nc(Nc4cc(C(F)(F)F)cn(C)c4=O)n(C)c3c2C#N)ccn1.CS(=O)(=O)O [Compound 4 Form A, N-(4-((7-cyano-1-methyl-2-((1-methyl-2-oxo-5-(trifluoromethyl)-1,2-dihydropyridin-3-yl)amino)-1H-imidazo[4,5-h]pyridin-6-yl)oxy)pyridin-2-yl)acetamide mesylate]
XRPD Result (physical stability) ([2]; 45° C., 2 d): Compound 4 Form B

— patent publication US12162881B2, “Forms and compositions of inhibitors of JAK2” (Ajax Therapeutics, Inc., priority 2021, dated 2024)
